Measured values from PubChem BioAssay (NCI).
Several values for one entry are separate records, joined by “and”; a condition that tells them apart may be missing. Equal entries are not always repeated.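 Briefly, cells in 96-well plates were exposed to five compound concentrations for 48 h, and endpoints were estimated by linear interpolation. GI50 is the concentration that inhibits growth by half. TGI denotes the concentration required for complete inhibition of growth.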

Legend:
Assay in all cases: NCI tumour cell line growth inhibition, 48 h
BT-549 breast = tested on: BT-549 breast
HL-60(TB) leukemia = tested on: HL-60(TB) leukemia
HS 578T breast = tested on: HS 578T breast
IGROV1 ovarian = tested on: IGROV1 ovarian
KM12 colon = tested on: KM12 colon
MDA-MB-231 breast = tested on: MDA-MB-231 breast
MDA-N = tested on: MDA-N
NCI-H226 lung = tested on: NCI-H226 lung
RPMI-8226 leukemia = tested on: RPMI-8226 leukemia
TK-10 renal = tested on: TK-10 renal

SMILES	TGI (BT-549 breast)	TGI (HL-60(TB) leukemia)	TGI (HS 578T breast)	TGI (IGROV1 ovarian)	TGI (KM12 colon)	TGI (MDA-MB-231 breast)	TGI (MDA-N)	TGI (NCI-H226 lung)	TGI (RPMI-8226 leukemia)	TGI (TK-10 renal)	GI50 (HL-60(TB) leukemia)	GI50 (IGROV1 ovarian)	GI50 (KM12 colon)	GI50 (NCI-H226 lung)	GI50 (RPMI-8226 leukemia)	GI50 (TK-10 renal)
CC(C)(C)OC(=O)NCC(c1c[nH]c2ccccc12)c1c[nH]c2ccccc12	35.1 µM	31.8 µM	57.8 µM	26.3 µM	28.6 µM	31.9 µM	35.3 µM	44 µM	22.2 µM	28.9 µM	–	–	–	–	–	–
C/C(CC(O)(C(F)(F)F)C(F)(F)F)=N\O	> 10 µM	> 10 µM	> 10 µM	> 10 µM	> 10 µM	> 10 µM	> 10 µM	> 10 µM	> 10 µM	> 10 µM	–	–	–	–	–	–
CC(C)(C)c1cc(C(C)(C)C)c(SC2OC(CO)C(O)C(O)C2O)c(O)c1O (stereo not drawn)	27 µM	14.5 µM	11.6 µM	43.4 µM	20.8 µM	50.9 µM	15.8 µM	36.7 µM	76.1 µM	46.3 µM	–	–	–	–	–	–
COc1ccc(-c2csc3c2[N+]2(C)C=CC=C2C3N2CCCC2)cc1 (stereo not drawn)	58.3 µM	> 100 µM	98.6 µM	27.2 µM	34.9 µM	> 100 µM	> 100 µM	26.5 µM	> 100 µM	> 100 µM	–	–	–	–	–	–
CC12CC(c3ccccc3O1)C(C(=O)Nc1nccs1)C(=O)N2 (stereo not drawn)	> 100 µM	> 100 µM	> 100 µM	> 100 µM	> 100 µM	> 100 µM	> 100 µM	> 100 µM	> 100 µM	> 100 µM	–	–	–	–	–	–
C[C@H](CCc1nc(C#N)c(N)o1)[C@H]1CC[C@H]2[C@@H]3CCC4C[C@@H](O)CC[C@]4(C)[C@H]3C[C@@H](O)[C@]12C (stereo partly drawn)	14.7 µM	2.38 µM	31.6 µM	25.6 µM	28.2 µM	32.7 µM	30.9 µM	25.1 µM	6.05 µM	28.6 µM	–	–	–	–	–	–
Oc1ccc(Nc2nc(Cl)c3[nH]cnc3n2)cc1	> 100 µM	> 100 µM	> 100 µM	> 100 µM	> 100 µM	> 100 µM	> 100 µM	> 100 µM	> 100 µM	> 100 µM	–	–	–	–	–	–
O=C(NNC(=O)c1ccc(Cl)cc1NC(=O)C12CC3CC(CC(C3)C1)C2)c1ccc(Cl)cc1	> 100 µM	58.7 µM	46.6 µM	32.7 µM	54.4 µM	51.2 µM	55.9 µM	65.1 µM	38.4 µM	57.2 µM	–	–	–	–	–	–
COc1ccc(/C=C/C(=O)c2cc(CN(C)C)c(O)c(CN(C)C)c2)cc1	72.9 µM	54.5 µM	> 100 µM	> 100 µM	37.4 µM	69.6 µM	67.1 µM	> 100 µM	> 100 µM	> 100 µM	–	–	–	–	–	–
Clc1cc(Cl)nc(Nc2ccc3c(c2)CCC3)n1	> 100 µM	73 µM	> 100 µM	72.3 µM	59.1 µM	> 100 µM	> 100 µM	> 100 µM	42 µM	> 100 µM	–	–	–	–	–	–
CSCCC(NC(=O)C(Cc1c[nH]c2ccccc12)NC(=O)CCNC(=O)OC(C)(C)C)C(=O)NC(CC(=O)O)C(=O)NC(Cc1ccccc1)C(N)=O (stereo not drawn)	> 50 µM	> 50 µM	> 50 µM	> 50 µM	> 50 µM	> 50 µM	> 50 µM	> 50 µM	> 50 µM	> 50 µM	–	–	–	–	–	–
O=C(NNC(=O)c1ccncc1)C(=O)Nc1cc(Cl)c(Cl)cc1Cl	> 100 µM	> 100 µM	> 100 µM	> 100 µM	> 100 µM	> 100 µM	> 100 µM	> 100 µM	> 100 µM	> 100 µM	–	–	–	–	–	–
O=C(O)c1c(CC(Cc2ccccc2)C(=O)O)ccc2c1CCC2 (stereo not drawn)	> 100 µM	> 100 µM	> 100 µM	> 100 µM	> 100 µM	> 100 µM	> 100 µM	> 100 µM	> 100 µM	> 100 µM	–	–	–	–	–	–
CC1=NN(c2ccccc2)C(=O)/C1=C\c1c(C)[nH]n(-c2ccccc2)c1=O	> 100 µM	> 100 µM	> 100 µM	> 100 µM	> 100 µM	> 100 µM	> 100 µM	> 100 µM	83.3 µM	> 100 µM	–	–	–	–	–	–
COC(=O)[C@@H]1C=CCN1S(=O)(=O)c1ccc(C)cc1	> 100 µM	53.5 µM	> 100 µM	> 100 µM	> 100 µM	> 100 µM	> 100 µM	> 100 µM	> 100 µM	> 100 µM	–	–	–	–	–	–
Cc1c2oc(=O)c(C#N)cc2c2ccccn12	> 100 µM	> 100 µM	> 100 µM	> 100 µM	> 100 µM	> 100 µM	> 100 µM	> 100 µM	> 100 µM	> 100 µM	–	–	–	–	–	–
CNCC(SC)c1ccc(O)c(O)c1 (stereo not drawn)	31 µM	37.5 µM	> 100 µM	> 100 µM	> 100 µM	> 100 µM	38.1 µM	> 100 µM	58.6 µM	34 µM	–	–	–	–	–	–
C#CCn1c(I)cc2c(c1=O)COC(=O)[C@]2(O)CC	> 100 µM	> 100 µM	> 100 µM	> 100 µM	> 100 µM	> 100 µM	> 100 µM	> 100 µM	> 100 µM	> 100 µM	–	–	–	–	–	–
CC(C)=CC(=O)OC1C2C(C)=CC(=O)C(O)C2(C)C2C3(O)OCC24C(CC(=O)OC14)C(C)C3O (stereo not drawn)	0.00846 µM	–	0.00523 µM	–	–	0.0596 µM and 0.0264 µM	0.00481 µM	–	0.028 µM and 0.0291 µM	0.0917 µM and 0.81 µM	0.02 µM	0.02 µM	0.0209 µM	0.02 µM	0.02 µM	0.0511 µM
COC1(C)CCC(OS(C)(=O)=O)CO1 (stereo not drawn)	> 100 µM	> 100 µM	> 100 µM	> 100 µM	> 100 µM	> 100 µM	> 100 µM	> 100 µM	> 100 µM	> 100 µM	–	–	–	–	–	–
COC(=O)c1ccc(C)cc1C1CN=NC12Cc1cccc(C)c1C2=O (stereo not drawn)	91.4 µM	49.8 µM	> 100 µM	> 100 µM	72.5 µM	> 100 µM	70.9 µM	73.6 µM	49.8 µM	> 100 µM	–	–	–	–	–	–
CCN(CC)CC[n+]1ccc2c(C)c3[nH]c4ccccc4c3c(C)c2c1	4.95 µM	3.7 µM and 0.464 µM and 0.743 µM	0.933 µM	3.45 µM and 11.2 µM and 5.33 µM	2.39 µM and 1.45 µM and 2.76 µM	2.93 µM	1.99 µM	1.89 µM and 2.89 µM and 0.693 µM	4.87 µM and 0.536 µM and 2.95 µM	25.3 µM	0.402 µM and < 0.0437 µM	0.365 µM and 1.21 µM and 0.786 µM	–	0.346 µM and 0.529 µM and 0.0944 µM	< 0.0471 µM	–
CCOC(=O)c1cnc2n(c1=O)[C@H]1CCCC[C@@H]1N2	> 100 µM	> 100 µM	> 100 µM	> 100 µM	> 100 µM	> 100 µM	> 100 µM	> 100 µM	> 100 µM	–	–	–	–	–	–	–
O=[N+]([O-])/C(Cl)=C(\NCCO)C(Cl)=C(Cl)Cl	> 100 µM	11.4 µM	> 91.5 µM	> 100 µM	> 100 µM	> 90.7 µM	> 96.3 µM	> 100 µM	40.5 µM	> 100 µM	–	–	–	–	–	–
O=C(NC1=C(Cl)C(=O)c2ccccc2C1=O)C(=O)c1c(O)c2ccccc2oc1=O	14.6 µM	29.1 µM	> 65 µM	16.1 µM	31.3 µM	22.5 µM	2.7 µM	28.9 µM	30.3 µM	37.7 µM	–	–	–	–	–	–
C[C@@H]1C[C@@H]2OC(=O)[C@]3(C)[C@H]2[C@@H](OC3(C)O)[C@]2(C)C(=O)C=C[C@@H]12 (stereo partly drawn)	23.1 µM	11.2 µM	> 100 µM	–	58.7 µM	64.5 µM	35.5 µM	> 100 µM	17.7 µM	> 100 µM	–	–	–	–	–	–
C=CCN1C(=O)C[C@H](Cc2ccccc2)NC(=O)C[C@H](Cc2ccccc2)N(CC=C)C(=O)C[C@H](Cc2ccccc2)NC(=O)C[C@@H]1Cc1ccccc1	> 100 µM	9.37 µM	> 100 µM	> 100 µM	> 100 µM	> 100 µM	> 100 µM	> 100 µM	9.66 µM	> 100 µM	–	–	–	–	–	–
Nc1ccnc2c1ncn2[C@H]1C[C@H](O)[C@@H](CO)O1	> 100 µM	> 100 µM	> 100 µM	> 100 µM	> 100 µM	> 100 µM	> 100 µM	> 100 µM	–	> 100 µM	–	–	–	–	–	–
Cc1cccc(NC(=S)Nc2cccc(Cl)c2)n1	> 100 µM	> 100 µM	> 100 µM	> 100 µM	> 100 µM	> 100 µM	> 100 µM	> 100 µM	> 100 µM	> 100 µM	–	–	–	–	–	–
